The subject of data set [1] is Kr cells. Nature of the data set: Process elaboration and inhibition of cell proliferation in Kr cells. Format: cell-based, Drosophila. The conditions noted are these: Drosophila melanogaster; 48 hours incubation; initial cell density 2 X 10^6 cells/ml. On the procedure: The invention will now be further described by way of exemplification and by reference to the drawings in which; • Figure 1. Both 20-hydroxyecdysone and Example No. 3 induce process elaboration (A) and inhibition of cell proliferation (B) in Kr cells in a dose-dependent manner. Initial cell density was 2 X 10^6 cells/ml; after incubation of 1 ml aliquots of the cells with the compound for 48 hours the cells were triturated gently and the percentage of cells responding (with processes longer than approximately 17 um, see Cherbas et al. 189 Wilhelm Roux's Arch. 1 (1980)) and total cell density was determined by hemocytom- eter counting, relative to ethanol (1 ul)-treated controls. Determinations were in triplicate for each dose. […] Induction of acetylcholinesterase by varying concentrations of 20-hydroxyecdysone and Example No. 3. Kr cells at an initial density of 3 X 10^6 cells/ml (10 ml per sample) were incubated with the agonist for three days. After harvesting, by centrifugation at 3000 X g, the cell pellets were washed with Robb's Drosophila saline (18, 2 X 5 ml) at 4 ° C, then lysed by sonication in 1 ml of phosphate buffer (pH 7.4, I = 0.1 M) containing 0.5 M NaCI, 0.25 M EDTA and 0.5% TRITON? X-100. See Cherbas, 197 Science 275 (1977). Triton is a registered trademark of Rohm and Haas Company for a alkylaryl polyoxyethylene glycol surfactant. After centrifugation at 16,000 X g, the supernatants were assayed for acetylcholinesterase activity by an adaptation of the method of Ellman et al., 7 Biochem. Pharmacol. 88 (1961), by subtracting out any 412 nm absorbance observed in incubations in the presence of 2 X 10-5 eserine sulfate. Thus reaction mixtures contained 50 ul of enzyme extract, 20 ul eserine (blank tubes only) and 1.0 ml of 0.5 mM acetylthiocholine, 0.3 mM dithiobisnitrobenzoic acid in phosphate buffer (pH 7.4, I = 0.1 M). Incubations were at 25 ° C for two hours; reactions in active tubes were terminated by addition of eserine. Absorbance at 412 nm was then measured. Protein concentration in extracts was measured by the Biorad method. […] Scatchard plot of ^3H-ponasterone A binding to Kr cell cytosolic receptor extracts in the presence of differing concentrations of Example No. 3. Cytosolic extract preparation and ecdysteroid receptor assays were essentially as described in Sage, 111 Meth. in Enzymol. 458 (1985). Example No. 3 was added in 1 ul DMSO to 50 ul of radioligand in 10 mM Tris buffer (pH 7.2) and 50 ul of undiluted cytosol extract. […] Ecdysteroid titers were measured by a radioimmunoassay adapted from Warren et al., 40 Experientia 393 (1984) with Protein A-Staph. aureus suspension (Sigma) used as the reagent to separate bound from free ligand. […]

The test system of data set [2] is Kr cells. Kind of data set: Resistant Kr cell populations: response and ecdysteroid receptor activity. The format is cell-based, Drosophila. The conditions noted are these: for response of surviving cells (process elaboration, proliferation): four weeks in 1 X 10^-6 M 20 hydroxyecdysone or 1 X 10^-4 M Example No. 3; for ^3H-ponasterone A bound by resistant cell populations: populations reared in 1 X 10^-6 M 20-hydroxyecdysone or 1 X 10^-4 M Example No. 3, solvent controls 10.1. On the procedure: Resistant Kr cell populations were reared by incubating cells at an initial density of 8 X 10^6 cells/ml with hormone or Example No. 3. The cells killed by treatment provide a feeder layer for the resistant populations. […] Ponasterone binding was assayed as described below and protein concentrations were determined using the Biorad method. This cross-resistance is compelling evidence that 20-hydroxyecdysone and Example No. 3 act through the ecdysone receptor.

The test system of the next data set is intact L5D0 hornworms. Nature of the data set: Premature head capsule apolysis in intact L5D0 hornworms, injected. The format is in vivo, M. sexta. The conditions noted are these: for ED50: Manduca sexta, L5D0 larvae, read-out: 50% effective dose. On the procedure:
L4D1 means fourth instar, first day after molting. L4 animals 36 hours after ecdysis were ligated, decapitated and next day injected with varying doses of compound in 1 - 2 ul DMSO. They were scored as follows: 0 = normal L4 abdomens with no L5 crochets or spiracle apolysis; 1 = exposed dorsal vessel (response to moderate levels of molting hormone in the presence of low JH levels); 2 = L5 crochets formed but no spiracle apolysis; 3 = L5 crochets formed and mild spiracle apolysis; 4 = strong molting response, both L5 crochets and spiracle cuticle synthesized. These methods are an adaptation of the method of J. W. Truman, L. M. Riddiford, L. Safranek, 39 Dev. Biol 247 (1974). Injection and scoring of L5D3 abdomens (weighing 6.5 - 7.5 g) are also adaptations of previous methods in H. F. Nijhout, 22 J. Insect Physiol. 453 (1976). Mature feeding stage fifth instar animals weighing 8.5 - 9.5 g were ligated and decapitated, and immediately injected with Example No. 3 in 2 - 5 ul DMSO. Animals were held over moistened filter paper at 25 ° C and were scored after three days. Scoring was as follows: 0 = normal undeveloped blue-green L5D3 abdomen; 1 = light dorsal vessel exposure; 2 = dorsal vessel well-exposed with mild cuticular blanching, abdominal contraction; 3 = complete prepupal cuticle formation with strong abdominal contraction and strong cuticular blanching. For both L4 and L5 abdomens, 50% effective doses were determined by plotting the mean score for all individuals vs. dose, then determining the dose which gives a score of 2.0 and 1.5 respectively. Intact L5D0 hornworms were either allowed to feed on treated commercial black cutworm diet or injected into a proleg and scored after 48 hours. The 50% effective dose was calculated by plotting percentage of the population bearing a prematurely apolysed head capsule vs. dose. For all experiments in this table at least 5 different doses with 10 animals per dose were used.
The dosage differences between the two compounds was even more dramatic in bioassays on intact (unligated) L5D0 hornworms. […]

A short description of data set [3]: Hemolymph titers of 14C-Example No. 3 in L5 hornworms after feeding. Format: in vivo, M. sexta.

From EP0361645B1, “Organic hydrazine derivatives for pharmaceutical use” (ROHM AND HAAS COMPANY, priority 1988, dated 1990) come the findings set out here.

pEC50: −log10 of the molar value.

Compound `CC(C)(O)CC[C@@H](O)[C@](C)(O)[C@H]1CC[C@@]2(O)C3=CC(=O)[C@@H]4C[C@@H](O)[C@@H](O)C[C@]4(C)[C@H]3CC[C@]12C` [20-hydroxyecdysone, reference compound] gave a negative-log EC50 (pEC50) with Kr cells [1] of 7.46. In the data set on Kr cells [2], the “response of surviving cells (process elaboration, proliferation)” value was “do not respond to either compound” and the “^3H-ponasterone A bound by resistant cell populations” value is on record as 1.5 femtomoles ^3H-ponasterone A per mg cytosolic protein. Further, in the data set with intact L5D0 hornworms, the ED50 amounted to 181 mg/kg.

In the data set with Kr cells [1], `CC(C)(C)N(NC(=O)c1ccccc1)C(=O)c1ccccc1` [Example No. 3, N'-t-butyl-N,N'-dibenzoylhydrazine] had a negative logarithm of the EC50 (pEC50) of 5.32. In addition, in the data set with Kr cells [2], the “response of surviving cells (process elaboration, proliferation)” value was “do not respond to either compound” and the “^3H-ponasterone A bound by resistant cell populations” value is 1.4 femtomoles ^3H-ponasterone A per mg cytosolic protein. Moreover, the “peak hemolymph concentration relative to concentrations required for a 50% response in Kr cell process elaboration and ^3H-ponasterone A displacement” value in data set [3] (10 ug/g oral dose) was in the range of 3 to 5 fold. In data set [3] (tobacco hornworm, hemolymph, po, 10 ug/g in diet, for at least 36 hours thereafter, read-out: residual hemolymph level), the concentration at 36 h was around 3 µM. For the same compound, the Cmax at 6 h in data set [3] (tobacco hornworm, hemolymph, po, L5D0 larvae, 10 ug/g in diet, at six hours after the initiation of feeding, read-out: peak hemolymph concentration) stood at 16 µM. For the same compound, in the data set on intact L5D0 hornworms, the ED50 is 3.4 mg/kg. The “fold as effective as 20-hydroxyecdysone” value in the data set on intact L5D0 hornworms (intact L5D0 hornworms) came out at 67 fold.

For orientation: pEC50 means −log10 of the EC50, conventionally taken in molar units. High values mean a small EC50, low ones a large EC50.
